Key:
WT EcDXPS = target: T1, WT EcDXPS (Escherichia coli, UniProt P77488); assay: Circular dichroism titration (PLThDP formation, apparent KD) on WT EcDXPS; type: binding
T1 construct: made in house
Text: The X-ray structure obtained from cocrystallization of DrDXPS with 1 (Figure 2) indicates the formation of the PLThDP adduct by reaction of the acetylphosphonate mimic of pyruvate with the C2 carbanion of ThDP. We reasoned that 8 should also engage the pyruvate binding site and react with ThDP to form a PLThDP adduct. Circular dichroism (CD) is a powerful tool that can be used to detect LThDP and LThDP-like adducts on thiamin-dependent enzymes,[56],[67]−[75] including DXPS.[31],[36],[43],[44],[49]−[52],[76] DXPS bound to ThDP (E-ThDP) is characterized by a CD λmin at 320 nm, indicative of the 4′-aminopyrimidine (AP) tautomer of ThDP (Figure 8A). Upon addition of pyruvate to E-ThDP, a new positive signal emerges at 313 nm, indicating the formation of LThDP in its 1′,4′-iminopyrimidine (IP) form. Similarly, upon addition of AP-based inhibitors to E-ThDP, the E-PLThDP adduct is formed, characterized by an increasing, broad CD signal.[69],[77],[78] Determination of apparent KD of PLThDP by plotting the CD signal corresponding to PLThDP versus [MAP] has been used as a proxy for PLThDP affinity.[77],[78] To confirm that 8 reacts with ThDP to form PLThDP in the DXPS active site, the change in CD signal upon addition of 8 (0.25–30 μM) to EcDXPS (30 μM) was measured. […] Plotting the CD signal at 294 nm versus affords a curve that approaches the limiting asymptotes defined by infinitely tight binding (Figure 8C),[79],[80] which is expected for this nanomolar inhibitor under the conditions of high [DXPS] required for this method. Since in this case [DXPS] ≫ KD^app, an accurate determination of KD^app is not possible, and data were fit to a quadratic equation to give an estimated upper limit for the value of KD^app (≤0.04 ± 0.01 μM). Addition of 10 to DXPS also results in an increased, broad CD signal (Figure S7A), indicating PLThDP formation. […]
CD titrations of 8 and 10 onto WT, R99A, and R478A EcDXPS variants were conducted at 25 °C under aerobic conditions in 1.5 mL solutions containing 30 μM EcDXPS in 50 mM HEPES pH 8, 100 mM NaCl, 1 mM MgCl2, and 0.2 mM ThDP. […] The CD signals at 294 nm determined from the difference spectra obtained by subtracting the signal of E-ThDP at 294 nm were plotted as a function of [inhibitor] and fit to (1) the quadratic equation described in eq 2 (8 on WT DXPS), where E is the concentration of DXPS taking into account stoichiometric binding and CDmax is the maximal CD signal, or (2) a one-site specific binding curve (all other experiments) using GraphPad Prism Version 9 to calculate an apparent KD. Experiments were conducted in triplicate and the standard error was calculated. […]
At the conclusion of the titration described above, the CD signal at 313 nm (previously characterized for LThDP) was recorded. […]

wildtype EcDXPS = target: T2, wildtype EcDXPS (Escherichia coli, UniProt P77488); assay: IC50 determination for 8 on wildtype EcDXPS (DXPS-IspC coupled assay); type: biochemical
T2 construct: made in house
Protocol: EcDXPS and IspC were preincubated with inhibitor for 10 min at 25 °C in assay reaction buffer (100 mM HEPES pH 8, 2 mM MgCl2, 5 mM NaCl, 1 mM ThDP, and 200 μM NADPH). Enzyme concentrations for variants were as follows: 200 nM DXPS (wildtype EcDXPS) and 4 μM IspC; 400 nM DXPS (R99A and R478A EcDXPS) and 6 μM IspC. The reaction was initiated by the addition of substrates at final concentrations of 2 × Km pyruvate and 10 × KmD-GAP. NADPH consumption was monitored at 340 nm for 10 min at 25 °C. The initial rate of NADPH consumption was used to determine the initial rate of DXP formation catalyzed by DXPS. Experiments were performed in triplicate and error bars represented standard error.

EcR99A DXPS = target: T3, EcR99A DXPS (Escherichia coli, UniProt P77488, R99A); assay: Time-dependent inhibition, reaction progress curves on EcR99A; type: biochemical; conditions: 8 at 700 nM or 200 μM
T3 construct: made in house
Protocol: Figure S8. Replicates of reaction progress curves for DXP formation on EcR99A in the presence or absence of 8. Reactions were initiated by simultaneous addition of substrates (780 µM pyruvate and 2400 µΜ D-GAP) in the presence or absence of 8 (700 nM or 200 µM) at 25 °C. Reaction progress was measured using the DXPS-IspC coupled assay. Experiments were performed in […]
Figure S9. Representative CD traces illustrating behavior of the CD signal corresponding to PLThDP formed from 8 on WT and EcDXPS variants. A) CD traces showing lack of a significant shift in CD signal following addition of pyruvate (1 mM, red trace) to E-PLThDP formed from 8 (blue trace) on WT B) Observed shift toward a LThDP-like CD signal following addition EcDXPS. of pyruvate to E-PLThDP formed from 8 on EcR99A DXPS. C) Observed shift toward a LThDP-like CD signal following addition of pyruvate to E-PLThDP formed from 8 on EcR478A DXPS. […]

SMILES: CC(=O)P(=O)(O)OCCc1cn(C(Cc2ccccc2)(Cc2ccccc2)C(=O)O)nn1 [Compound 8]
- Kd (WT EcDXPS): ≤ 40 nM
- change in PLThDP CD signal upon addition of 1 mM pyruvate (WT EcDXPS; WT EcDXPS 30 μM, inhibitor 30 μM): negligible shift in the CD signal
- IC50 (wildtype EcDXPS): ≤ 72 nM
- concentration required for 21% inhibition of DXPS (wildtype EcDXPS; 2 × Km pyruvate): less than 15.6 nM
- time dependence of inhibition (progress curve for DXP formation) (EcR99A DXPS): loss of time-dependent behavior
